# Experimental data published in patent publication US20220151962A1, “NOVEL INHIBITORS OF HISTONE DEACETYLASE 10” (Deutsches Krebsforschungszentrum, priority 2019, published 2022).
# Columns and labels:
# [1] = target: T1, HDAC8 (Homo sapiens, UniProt Q9BY41); test: HDAC-Glo I/II assay, HDAC8; format: biochemical; parameters: purchased BPS Bioscience 50008; settings: recombinant human HDAC8, HDAC-Glo; read-out: pIC50 HDAC8 Glo (converted)
# T1 sequence (Q9BY41 1-377): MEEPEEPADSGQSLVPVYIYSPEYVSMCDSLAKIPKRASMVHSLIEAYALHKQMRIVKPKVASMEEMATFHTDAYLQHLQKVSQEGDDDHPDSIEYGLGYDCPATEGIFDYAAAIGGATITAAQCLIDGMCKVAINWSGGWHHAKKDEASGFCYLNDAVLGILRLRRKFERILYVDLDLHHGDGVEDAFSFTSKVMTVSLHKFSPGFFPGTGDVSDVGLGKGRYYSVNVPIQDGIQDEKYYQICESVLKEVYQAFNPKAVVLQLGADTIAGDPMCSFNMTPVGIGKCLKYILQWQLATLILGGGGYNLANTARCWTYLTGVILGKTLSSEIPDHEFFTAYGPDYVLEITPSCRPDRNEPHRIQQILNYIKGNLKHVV
# [2] = target: T2, HDAC1 (Homo sapiens, UniProt Q13547); test: HDAC-Glo I/II assay, HDAC1; format: biochemical; settings: recombinant human HDAC1, HDAC-Glo; read-out: pIC50 HDAC1 Glo (converted)
# T2 construct: purchased BPS Bioscience 50051
# T2 sequence (Q13547 whole entry): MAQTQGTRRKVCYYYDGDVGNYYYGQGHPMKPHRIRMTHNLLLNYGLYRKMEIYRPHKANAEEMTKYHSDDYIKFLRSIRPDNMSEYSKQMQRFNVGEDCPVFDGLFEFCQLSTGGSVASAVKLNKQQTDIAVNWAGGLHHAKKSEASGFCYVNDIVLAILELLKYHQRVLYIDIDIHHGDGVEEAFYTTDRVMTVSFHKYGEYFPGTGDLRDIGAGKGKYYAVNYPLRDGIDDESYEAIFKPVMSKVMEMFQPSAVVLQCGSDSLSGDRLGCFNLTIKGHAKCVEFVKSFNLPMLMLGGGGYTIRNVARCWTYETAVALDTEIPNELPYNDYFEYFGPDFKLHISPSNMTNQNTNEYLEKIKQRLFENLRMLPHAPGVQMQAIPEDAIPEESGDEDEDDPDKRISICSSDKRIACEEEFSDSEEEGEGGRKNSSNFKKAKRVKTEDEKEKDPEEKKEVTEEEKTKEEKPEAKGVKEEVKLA
# [3] = target: T3, HDAC6 (Homo sapiens, UniProt Q9UBN7); test: HDAC-Glo I/II assay, HDAC6; format: biochemical; settings: recombinant human HDAC6, HDAC-Glo; read-out: pIC50 HDAC6 Glo (converted)
# T3 construct: purchased BPS Bioscience 50006
# T3 sequence (Q9UBN7 1-1215): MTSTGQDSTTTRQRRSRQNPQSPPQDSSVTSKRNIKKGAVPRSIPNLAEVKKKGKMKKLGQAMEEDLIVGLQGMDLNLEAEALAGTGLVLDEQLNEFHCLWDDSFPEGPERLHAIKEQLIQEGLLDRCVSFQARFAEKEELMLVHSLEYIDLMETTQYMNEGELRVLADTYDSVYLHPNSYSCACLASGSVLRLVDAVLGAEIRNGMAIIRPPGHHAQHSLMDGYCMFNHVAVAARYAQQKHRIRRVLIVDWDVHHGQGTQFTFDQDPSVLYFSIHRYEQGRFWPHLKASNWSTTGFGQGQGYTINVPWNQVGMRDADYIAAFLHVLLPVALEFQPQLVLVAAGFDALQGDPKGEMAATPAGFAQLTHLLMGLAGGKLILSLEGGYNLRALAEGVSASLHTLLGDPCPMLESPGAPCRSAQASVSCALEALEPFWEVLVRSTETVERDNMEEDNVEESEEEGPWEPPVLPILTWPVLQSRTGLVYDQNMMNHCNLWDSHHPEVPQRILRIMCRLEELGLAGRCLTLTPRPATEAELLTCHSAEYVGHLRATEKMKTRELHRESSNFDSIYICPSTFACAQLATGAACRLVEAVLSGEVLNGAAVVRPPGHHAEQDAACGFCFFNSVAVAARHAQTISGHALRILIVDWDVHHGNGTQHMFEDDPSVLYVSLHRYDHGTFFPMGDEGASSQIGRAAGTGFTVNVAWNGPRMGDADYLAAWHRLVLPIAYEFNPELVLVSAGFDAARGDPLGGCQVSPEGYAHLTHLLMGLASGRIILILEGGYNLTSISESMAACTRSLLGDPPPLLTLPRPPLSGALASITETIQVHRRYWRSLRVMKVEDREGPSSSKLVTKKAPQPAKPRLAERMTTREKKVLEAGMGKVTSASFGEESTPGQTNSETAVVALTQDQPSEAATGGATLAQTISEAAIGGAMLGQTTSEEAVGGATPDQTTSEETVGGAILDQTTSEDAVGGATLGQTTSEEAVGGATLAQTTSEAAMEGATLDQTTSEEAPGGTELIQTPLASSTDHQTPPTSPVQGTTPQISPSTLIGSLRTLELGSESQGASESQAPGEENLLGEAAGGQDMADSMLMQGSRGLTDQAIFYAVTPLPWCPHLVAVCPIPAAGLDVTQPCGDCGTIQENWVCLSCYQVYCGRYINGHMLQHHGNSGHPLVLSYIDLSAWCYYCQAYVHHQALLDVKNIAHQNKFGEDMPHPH
# [4] = target: T4, TwinStrep-GST-HDAC10 (Homo sapiens, UniProt Q969S8); test: HDAC10 TR-FRET assay (Tubastatin-AF647-Tracer displacement); format: binding; settings: TR-FRET, 60 min at rt; read-out: pIC50 HDAC10 FRET (converted)
# T4 construct: made in house; host or cells: Sf21 insect cells (baculovirus, pFastBac1)
# T4 sequence (Q969S8 1-669): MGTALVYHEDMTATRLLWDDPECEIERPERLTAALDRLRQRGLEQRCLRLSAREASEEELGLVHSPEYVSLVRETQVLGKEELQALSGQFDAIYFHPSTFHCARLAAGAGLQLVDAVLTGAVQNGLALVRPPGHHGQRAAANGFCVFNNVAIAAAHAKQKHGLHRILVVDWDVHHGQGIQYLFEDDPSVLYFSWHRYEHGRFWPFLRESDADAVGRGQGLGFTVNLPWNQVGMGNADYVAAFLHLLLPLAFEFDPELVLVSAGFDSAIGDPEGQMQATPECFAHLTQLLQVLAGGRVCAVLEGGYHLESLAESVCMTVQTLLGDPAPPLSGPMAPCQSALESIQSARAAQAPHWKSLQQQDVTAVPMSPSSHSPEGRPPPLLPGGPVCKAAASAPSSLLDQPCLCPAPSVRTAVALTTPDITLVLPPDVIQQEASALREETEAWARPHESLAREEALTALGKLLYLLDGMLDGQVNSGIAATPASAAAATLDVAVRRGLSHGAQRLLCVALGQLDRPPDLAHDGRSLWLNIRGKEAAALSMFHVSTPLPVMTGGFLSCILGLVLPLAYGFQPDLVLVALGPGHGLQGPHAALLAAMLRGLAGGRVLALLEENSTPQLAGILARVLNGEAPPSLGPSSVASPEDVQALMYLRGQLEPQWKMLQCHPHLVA
# [5] = Stability on exposure to air (observation); format: physicochemical; settings: especially in solution
# [6] = target: T5, HDAC2 (Homo sapiens, UniProt Q92769); test: HDAC-Glo I/II assay, HDAC2; format: biochemical; settings: recombinant human HDAC2, HDAC-Glo; read-out: pIC50 HDAC2 Glo (converted)
# T5 construct: purchased BPS Bioscience 50002
# T5 sequence (Q92769 whole entry): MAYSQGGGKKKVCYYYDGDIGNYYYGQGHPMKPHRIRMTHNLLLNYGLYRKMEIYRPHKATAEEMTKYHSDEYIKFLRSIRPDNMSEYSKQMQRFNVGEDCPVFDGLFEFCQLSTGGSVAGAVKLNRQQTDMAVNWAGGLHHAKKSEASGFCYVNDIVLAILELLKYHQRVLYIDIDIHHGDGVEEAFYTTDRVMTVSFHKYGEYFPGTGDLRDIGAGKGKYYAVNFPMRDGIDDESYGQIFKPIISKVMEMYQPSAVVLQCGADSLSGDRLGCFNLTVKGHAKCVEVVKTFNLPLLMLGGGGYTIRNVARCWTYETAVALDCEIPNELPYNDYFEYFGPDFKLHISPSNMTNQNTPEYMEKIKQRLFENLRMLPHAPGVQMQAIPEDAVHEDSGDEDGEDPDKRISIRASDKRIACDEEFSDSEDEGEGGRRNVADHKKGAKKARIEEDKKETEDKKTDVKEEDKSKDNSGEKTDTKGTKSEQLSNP
# [7] = target: T6, HDAC3/NcoR2 complex (Homo sapiens, UniProt O15379); test: HDAC-Glo I/II assay, HDAC3/NcoR2 complex; format: biochemical; settings: recombinant human HDAC3/NcoR2 complex, read-out: pIC50 HDAC3 Glo (converted)
# T6 construct: purchased BPS Bioscience 50003
# T6 sequence (O15379 whole entry): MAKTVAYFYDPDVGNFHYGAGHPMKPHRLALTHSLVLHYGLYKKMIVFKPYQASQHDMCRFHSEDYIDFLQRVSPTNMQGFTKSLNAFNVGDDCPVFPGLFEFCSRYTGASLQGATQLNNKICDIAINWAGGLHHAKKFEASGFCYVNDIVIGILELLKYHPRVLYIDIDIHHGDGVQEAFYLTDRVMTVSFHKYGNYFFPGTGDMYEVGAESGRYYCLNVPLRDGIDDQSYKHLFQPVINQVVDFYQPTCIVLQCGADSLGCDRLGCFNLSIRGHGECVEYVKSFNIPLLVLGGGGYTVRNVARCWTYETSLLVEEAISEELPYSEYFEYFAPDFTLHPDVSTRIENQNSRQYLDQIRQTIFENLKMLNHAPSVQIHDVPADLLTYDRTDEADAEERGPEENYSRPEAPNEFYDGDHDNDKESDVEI
# T6 sequence (Q9Y618 395-489 partner limits assumed): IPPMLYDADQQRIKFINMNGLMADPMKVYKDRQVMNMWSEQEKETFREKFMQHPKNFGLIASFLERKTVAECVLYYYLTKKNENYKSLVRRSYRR
compound,measurement,setting,value
"CN(CCNC(=O)CS)CCNC(=O)c1ccccc1 [DKFZ-825, N-(2-((2-(2-Mercaptoacetamido)ethyl)(methyl)amino)ethyl)benzamide]",IC50,[1],> 100 µM
same,IC50,[2],12.6 µM
same,IC50,[3],3.98 µM
same,IC50,[4],0.0126 µM
same,stability when exposed to air,[5],form the disulfide when exposed to air
same,IC50,[6],12.6 µM
same,IC50,[7],> 100 µM
